Patent publication US12168651B1, “9-(6-flouro-2-hydroxypyridin-3-yl)-10-(2-hydroxyethyl)-3,6-diphenyl-3,4,6,7,9,10-hexahydroacridine1,8(2H,5H)-dione as an antimicrobial compound” (KING FAISAL UNIVERSITY, priority 2023, dated 2024)

Tests used:
Type in all cases: cell-based
Conditions in all cases: after 10, 20, 40 and 60 minutes at all dilutions 1:100, 1:200, 1:400, 1:800
Pseudomonas aeruginosa = assay: Antimicrobial screening by agar dilution, Ps. Aeroqonaza
Protocol: (§1) The antibacterial properties of the synthesized compound (9-(6-flouro-2-hydroxypyridin-3-yl)-10-(2-hydroxyethyl)-3,6-diphenyl-3,4,6,7,9,10-hexahydroacridine1,8(2H,5H)-dione) were studied by the method of agar dilution. Test solutions of each compound was prepared in concentration of 1% using dimethylformamide as a solvent then they are diluted in physiological solution to obtain the final experimental dilutions 1:100, 1:200, 1:400, 1:800. The effect of these substances are compared with furacillin in a controllable study. The testing microbes used were gram positive bacteria Staphylococcus aureus, gram negative bacteria Pseudomonas aeruginosa and Escherichia coli and Candida albicans fungus. The experiments used for this survey were meat-pentonlu agar (EPA) for cultivation of bacteria and Saburo environment for the fungus. Each experiment used 1 mL of test solution on each plate […]. Two drops of emulsified with microbes feel were added. All experimental samples were taken from the agar after 10, 20, 40, 60 minutes in the environment on the basis of Patrk planted. The bacteria were cultivated at a temperature of 37° C. for 1 day and the mushroom was kept in a thermostat for […] at a temperature of 28° C. Then results were checked.

Staphylococcus aureus = assay: Antimicrobial screening by agar dilution, St. Aereus
Protocol: as §1

Candida albicans = assay: Antimicrobial screening by agar dilution, Candida albicans
Protocol: as §1

Escherichia coli = assay: Antimicrobial screening by agar dilution, E. Coli
Protocol: as §1

Measured: inhibition activity (in words)

O=C1CC(c2ccccc2)CC2=C1C(c1cc3cc(F)ccc3nc1O)C1=C(CC(c3ccccc3)CC1=O)N2CCO (stereo not shown)
the most higher inhibition activity: all assays above
